± gives the expanded uncertainty stated by the source.
How the values were obtained:
[1] = activity coefficient (dimensionless); of the first substance listed, at infinite dilution; xn = mol fraction of the nth substance listed; details: 101 kPa, Liquid, Chromatography, x1 = 0

CCCCn1cc[n+](C)c1.[Cl-] [1-butyl-3-methylimidazolium chloride]
100 kPa
Details	mass density [kg/m3]
308.15 K, Metastable liquid, Vibrating tube method	1079.4 ± 1
313.15 K, Metastable liquid, Vibrating tube method	1076.6 ± 1
318.15 K, Metastable liquid, Vibrating tube method	1073.7 ± 1
323.15 K, Metastable liquid, Vibrating tube method	1070.9 ± 1
328.15 K, Metastable liquid, Vibrating tube method	1068.1 ± 1
333.15 K, Metastable liquid, Vibrating tube method	1065.2 ± 1
338.15 K, Metastable liquid, Vibrating tube method	1062.4 ± 1
343.15 K, Vibrating tube method, Liquid	1059.6 ± 1
348.15 K, Vibrating tube method, Liquid	1056.9 ± 1
353.15 K, Vibrating tube method, Liquid	1054.3 ± 1
358.15 K, Vibrating tube method, Liquid	1051.7 ± 1
363.15 K, Vibrating tube method, Liquid	1049 ± 1
368.15 K, Vibrating tube method, Liquid	1046.4 ± 1
373.15 K, Vibrating tube method, Liquid	1043.9 ± 1

CCCCn1cc[n+](C)c1.COP(=O)([O-])OC [1-butyl-3-methyl-1H-imidazolium dimethylphosphate]
100 kPa, Liquid, Vibrating tube method
Details	mass density [kg/m3]
293.15 K	1166.5 ± 1.5
298.15 K	1163.2 ± 1.5
303.15 K	1159.4 ± 1.5
308.15 K	1156.2 ± 1.5
313.15 K	1152.7 ± 1.5
318.15 K	1149.5 ± 1.5
323.15 K	1146.1 ± 1.4
328.15 K	1143 ± 1.4
333.15 K	1139.7 ± 1.4
338.15 K	1136.5 ± 1.4
343.15 K	1133.3 ± 1.4
348.15 K	1130.1 ± 1.4
353.15 K	1126.9 ± 1.4
358.15 K	1123.7 ± 1.4
363.15 K	1120.6 ± 1.4
368.15 K	1117.4 ± 1.4

CCCCn1cc[n+](C)c1.CS(=O)(=O)[O-] [1-butyl-3-methylimidazolium methanesulfonate]
100 kPa, Liquid, Vibrating tube method
Details	mass density [kg/m3]
333.15 K	1150.6 ± 1.1
338.15 K	1147.4 ± 1.1
343.15 K	1144.3 ± 1.1
348.15 K	1141.2 ± 1
353.15 K	1137.9 ± 1
358.15 K	1134.9 ± 1
363.15 K	1131.9 ± 1
368.15 K	1128.8 ± 1
373.15 K	1125.8 ± 1

CCC(=O)OC [methyl propanoate] + CCCCn1cc[n+](C)c1.CS(=O)(=O)[O-]
[1]
Details	activity coefficient
358.15 K	4.43 ± 0.3
368.15 K	4.56 ± 0.31
378.15 K	4.68 ± 0.32
388.15 K	4.9 ± 0.33

Reference: the NIST ThermoML archive (doi:10.1016/j.jct.2015.07.042)
